Experimental data from PubChem BioAssay AID248 (DTP/NCI, 2004).
Several values for one entry are separate records, joined by “and”; a condition that tells them apart may be missing. Equal values may be shown once. Toxic doses and inconclusive results are not listed. Rule as the data show it: active = T/C of 150% or more; inactive = T/C below 125%.

System: L1210 leukemia ip in BDF1 mice, survival T/C
Assay: NCI In Vivo Anticancer Drug Screen. Data for tumor model L1210 Leukemia (intraperitoneal) in B6D2F1 (BDF1) mice
Settings: endpoint: mean survival time, higher = longer survival
How it was run: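 Each compound was tested against a transplantable tumor grown in mice. The endpoint was survival, with treated animals benchmarked against vehicle controls as a simple ratio.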

[1] = dose: 100.0 mg/kg/injection, schedule: Q01DX009 (ip), vehicle: Klucel (hydroxypropylcellulose) (HPC)
[2] = dose: 100.0 mg/kg/injection, schedule: Q01DX001 (ip), vehicle: saline
[3] = dose: 100.0 mg/kg/injection, schedule: Q04DX003 (ip), vehicle: saline
[4] = dose: 200.0 mg/kg/injection, schedule: Q01DX001 (ip), vehicle: saline
[5] = dose: 200.0 mg/kg/injection, schedule: Q04DX003 (ip), vehicle: saline
[6] = dose: 400.0 mg/kg/injection, schedule: Q01DX001 (ip), vehicle: saline
[7] = dose: 400.0 mg/kg/injection, schedule: Q04DX003 (ip), vehicle: saline

Measured: T/C

CSc1ncc(Br)c(N2CC2)n1
inactive: dose: 59.0 mg/kg/injection, schedule: Q01DX Z (ip), vehicle: methylcellulose (MC) 89 % of control | dose: 88.0 mg/kg/injection, schedule: Q01DX Z (ip), vehicle: methylcellulose (MC) 86 % of control

O=C(Nc1ncccc1[N+](=O)[O-])C(Cl)(Cl)Cl
inactive: dose: 100.0 mg/kg/injection, schedule: Q01DX001 (ip), vehicle: Klucel (hydroxypropylcellulose) (HPC) 101 % of control | [1] 115 % of control | dose: 100.0 mg/kg/injection, schedule: Q04DX002 (ip), vehicle: Klucel (hydroxypropylcellulose) (HPC) 100 % of control and 88 % of control | dose: 100.0 mg/kg/injection, schedule: Q04DX003 (ip), vehicle: Klucel (hydroxypropylcellulose) (HPC) 95 % of control | dose: 200.0 mg/kg/injection, schedule: Q01DX001 (ip), vehicle: Klucel (hydroxypropylcellulose) (HPC) 100 % of control | dose: 200.0 mg/kg/injection, schedule: Q01DX009 (ip), vehicle: Klucel (hydroxypropylcellulose) (HPC) 108 % of control | dose: 200.0 mg/kg/injection, schedule: Q04DX002 (ip), vehicle: Klucel (hydroxypropylcellulose) (HPC) 103 % of control and 91 % of control | dose: 200.0 mg/kg/injection, schedule: Q04DX003 (ip), vehicle: Klucel (hydroxypropylcellulose) (HPC) 106 % of control | dose: 400.0 mg/kg/injection, schedule: Q01DX001 (ip), vehicle: Klucel (hydroxypropylcellulose) (HPC) 101 % of control | dose: 400.0 mg/kg/injection, schedule: Q04DX002 (ip), vehicle: Klucel (hydroxypropylcellulose) (HPC) 100 % of control and 103 % of control | dose: 400.0 mg/kg/injection, schedule: Q04DX003 (ip), vehicle: Klucel (hydroxypropylcellulose) (HPC) 95 % of control

COc1ccc(CN2CCCN(Cc3ccc(OC)cc3OC)C2c2cccc([N+](=O)[O-])c2O)c(OC)c1
inactive: dose: 50.0 mg/kg/injection, schedule: Q01DX001 (ip), vehicle: carboxymethylcellulose (CMC) 104 % of control | dose: 100.0 mg/kg/injection, schedule: Q01DX001 (ip), vehicle: carboxymethylcellulose (CMC) 98 % of control | dose: 200.0 mg/kg/injection, schedule: Q01DX001 (ip), vehicle: carboxymethylcellulose (CMC) 110 % of control | dose: 400.0 mg/kg/injection, schedule: Q01DX001 (ip), vehicle: carboxymethylcellulose (CMC) 98 % of control

c1ccc(-c2cc(-c3ccccc3)cc(-c3ccccc3)c2)cc1
inactive: dose: 1.56 mg/kg/injection, schedule: Q01DX009 (ip), vehicle: saline 98 % of control | dose: 3.12 mg/kg/injection, schedule: Q01DX009 (ip), vehicle: saline 95 % of control | dose: 6.25 mg/kg/injection, schedule: Q01DX009 (ip), vehicle: saline 93 % of control

CC(=O)C1OC1(C)C (centres undefined)
inactive: [2] 108 % of control | dose: 100.0 mg/kg/injection, schedule: Q01DX009 (ip), vehicle: saline 105 % of control | [3] 108 % of control | [4] 103 % of control | dose: 200.0 mg/kg/injection, schedule: Q01DX009 (ip), vehicle: saline 104 % of control | [5] 102 % of control | [6] 104 % of control | dose: 400.0 mg/kg/injection, schedule: Q01DX009 (ip), vehicle: saline 104 % of control | [7] 102 % of control

O=P(O)(O)OCC1OC(O)(COP(=O)(O)O)C(O)C1O (centres undefined)
inactive: dose: 100.0 mg/kg/injection, schedule: Q04DX002 (ip), vehicle: saline 100 % of control | dose: 200.0 mg/kg/injection, schedule: Q04DX002 (ip), vehicle: saline 106 % of control | dose: 400.0 mg/kg/injection, schedule: Q04DX002 (ip), vehicle: saline 95 % of control

O=C(NCCCCCCCCCCNC(=O)Nc1ccc(C2=NCC(O)CN2)cc1)Nc1ccc(C2=NCC(O)CN2)cc1 (centres undefined)
inactive: dose: 4.0 mg/kg/injection, schedule: Q01DX Z (ip), vehicle: water 117 % of control | dose: 8.0 mg/kg/injection, schedule: Q01DX Z (ip), vehicle: water 112 % of control | dose: 16.0 mg/kg/injection, schedule: Q01DX Z (ip), vehicle: water 106 % of control

C=C1CC(C)(c2ccc(S(=O)(=O)N3CCCC3)cc2)OC1=O (centres undefined)
inactive: dose: 18.0 mg/kg/injection, schedule: Q01DX009 (ip), vehicle: Klucel (hydroxypropylcellulose) (HPC) 108 % of control | dose: 37.5 mg/kg/injection, schedule: Q01DX009 (ip), vehicle: Klucel (hydroxypropylcellulose) (HPC) 95 % of control | dose: 75.0 mg/kg/injection, schedule: Q01DX009 (ip), vehicle: Klucel (hydroxypropylcellulose) (HPC) 104 % of control | dose: 87.5 mg/kg/injection, schedule: Q01DX009 (ip), vehicle: Klucel (hydroxypropylcellulose) (HPC) 104 % of control

O=C(n1ccnc1)C(F)(F)F
inactive: dose: 100.0 mg/kg/injection, schedule: Q01DX001 (ip), vehicle: saline sonified 105 % of control | [3] 109 % of control | dose: 200.0 mg/kg/injection, schedule: Q01DX001 (ip), vehicle: saline sonified 108 % of control | [5] 91 % of control | dose: 400.0 mg/kg/injection, schedule: Q01DX001 (ip), vehicle: saline sonified 101 % of control | [7] 97 % of control

O=S(=O)(/C=C/c1ccccc1)N1CCCCC1
inactive: [2] 103 % of control | [4] 102 % of control | [6] 102 % of control

O=C(O)c1ccc2c(c1)NC(c1cccc3ccccc13)NC2=O (centres undefined)
inactive: dose: 50.0 mg/kg/injection, schedule: Q01DX009 (ip), vehicle: Klucel (hydroxypropylcellulose) (HPC) 93 % of control | [1] 94 % of control | dose: 150.0 mg/kg/injection, schedule: Q01DX009 (ip), vehicle: Klucel (hydroxypropylcellulose) (HPC) 96 % of control

O=C(O)c1ccccc1N=Cc1ccccc1
inactive: dose: 100.0 mg/kg/injection, schedule: Q04DX002 (ip), vehicle: saline with Tween-80 93 % of control | dose: 200.0 mg/kg/injection, schedule: Q04DX002 (ip), vehicle: saline with Tween-80 120 % of control | dose: 400.0 mg/kg/injection, schedule: Q04DX002 (ip), vehicle: saline with Tween-80 101 % of control

Cc1ccccc1N(C=O)c1ccccc1C
inactive: dose: 50.0 mg/kg/injection, schedule: Q01DX Z (ip), vehicle: methylcellulose (MC) 111 % of control | dose: 80.0 mg/kg/injection, schedule: Q01DX Z (ip), vehicle: methylcellulose (MC) 115 % of control | dose: 125.0 mg/kg/injection, schedule: Q01DX Z (ip), vehicle: methylcellulose (MC) 98 % of control and 114 % of control | dose: 180.0 mg/kg/injection, schedule: Q01DX Z (ip), vehicle: methylcellulose (MC) 115 % of control | dose: 240.0 mg/kg/injection, schedule: Q01DX Z (ip), vehicle: methylcellulose (MC) 97 % of control | dose: 250.0 mg/kg/injection, schedule: Q01DX Z (ip), vehicle: methylcellulose (MC) 93 % of control | dose: 300.0 mg/kg/injection, schedule: Q01DX Z (ip), vehicle: methylcellulose (MC) 109 % of control | dose: 360.0 mg/kg/injection, schedule: Q01DX Z (ip), vehicle: methylcellulose (MC) 100 % of control | dose: 500.0 mg/kg/injection, schedule: Q01DX Z (ip), vehicle: methylcellulose (MC) 106 % of control | dose: 1000.0 mg/kg/injection, schedule: Q01DX Z (ip), vehicle: methylcellulose (MC) 98 % of control

CC(C)=C(C=O)CCC(C)C
inactive: dose: 100.0 mg/kg/injection, schedule: Q01DX009 (ip), vehicle: saline with Tween-80 93 % of control | dose: 100.0 mg/kg/injection, schedule: Q04DX003 (ip), vehicle: saline with Tween-80 95 % of control | dose: 200.0 mg/kg/injection, schedule: Q01DX009 (ip), vehicle: saline with Tween-80 88 % of control | dose: 200.0 mg/kg/injection, schedule: Q04DX003 (ip), vehicle: saline with Tween-80 93 % of control | dose: 400.0 mg/kg/injection, schedule: Q04DX003 (ip), vehicle: saline with Tween-80 97 % of control
